target: T1, purified human HDAC6 (Homo sapiens, UniProt Q9UBN7); assay: HDAC6 Enzyme Assay; format: biochemical; details: bin: greater than 500 nM and less than 1 μM (lower bound in nM, upper bound in μM)
T1 construct: purchased BPS Bioscience 5006
T1 sequence (Q9UBN7 1-1215): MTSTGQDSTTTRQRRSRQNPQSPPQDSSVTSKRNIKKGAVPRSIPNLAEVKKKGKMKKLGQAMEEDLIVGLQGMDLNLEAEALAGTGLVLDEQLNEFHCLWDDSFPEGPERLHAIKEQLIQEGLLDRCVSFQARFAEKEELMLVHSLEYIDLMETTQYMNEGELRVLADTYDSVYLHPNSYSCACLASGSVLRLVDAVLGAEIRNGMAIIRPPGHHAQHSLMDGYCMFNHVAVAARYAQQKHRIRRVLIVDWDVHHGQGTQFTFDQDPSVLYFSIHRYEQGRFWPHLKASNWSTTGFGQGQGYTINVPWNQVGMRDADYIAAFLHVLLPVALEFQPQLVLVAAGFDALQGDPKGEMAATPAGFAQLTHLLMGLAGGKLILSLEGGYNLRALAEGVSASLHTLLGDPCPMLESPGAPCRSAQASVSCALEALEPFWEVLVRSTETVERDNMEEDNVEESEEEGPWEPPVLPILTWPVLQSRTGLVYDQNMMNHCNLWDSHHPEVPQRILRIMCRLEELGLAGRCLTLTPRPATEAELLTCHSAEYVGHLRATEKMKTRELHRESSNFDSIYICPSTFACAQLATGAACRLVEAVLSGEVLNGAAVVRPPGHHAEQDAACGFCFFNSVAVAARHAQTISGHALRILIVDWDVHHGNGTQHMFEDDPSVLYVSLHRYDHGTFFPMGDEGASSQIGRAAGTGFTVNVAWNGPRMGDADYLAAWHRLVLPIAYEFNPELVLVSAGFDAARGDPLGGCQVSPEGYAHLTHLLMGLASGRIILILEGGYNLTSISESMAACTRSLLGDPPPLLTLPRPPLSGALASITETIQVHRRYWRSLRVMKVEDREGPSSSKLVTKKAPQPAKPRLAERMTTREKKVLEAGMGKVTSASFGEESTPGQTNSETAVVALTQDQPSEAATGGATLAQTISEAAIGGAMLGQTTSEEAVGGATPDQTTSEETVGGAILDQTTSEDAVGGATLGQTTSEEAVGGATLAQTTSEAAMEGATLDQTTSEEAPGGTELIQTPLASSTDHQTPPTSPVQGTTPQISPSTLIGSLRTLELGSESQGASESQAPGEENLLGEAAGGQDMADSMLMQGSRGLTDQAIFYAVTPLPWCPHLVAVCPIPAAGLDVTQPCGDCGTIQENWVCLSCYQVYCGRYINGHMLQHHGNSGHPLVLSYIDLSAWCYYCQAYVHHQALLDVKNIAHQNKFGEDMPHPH
Method in brief: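 Deacetylated product quantified after trypsin digestion as released AMC (340/460 nm), following a 1 h, 30 °C reaction of human HDAC6 with Ac-RGK(Ac)-AMC peptide, quenched by trichostatin A. IC50 derived from DMSO-normalized curves.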

IC50	SMILES
500 to 1000 nM	Cc1cc(C)c(C(=O)NC(C)c2cccc(C(=O)NO)c2)[nH]1 (stereo not shown) [Compound I-91, N-(1-{3-[(hydroxyamino)carbonyl]phenyl}ethyl)-3,5-dimethyl-1H-pyrrole-2-carboxamide]

same assay, conditions: bin: greater than 1 μM

IC50	SMILES
> 1000 nM	Cc1c(C(=O)NC(c2cccc(C(=O)NO)c2)C(C)C)oc2ccccc12 (stereo not shown) [Compound I-93, N-(1-{3-[(hydroxyamino)carbonyl]phenyl}-2-methylpropyl)-3-methyl-1-benzofuran-2-carboxamide]
> 1000 nM	Cc1cc(C(=O)NO)ccc1C(C)NC(=O)C(C)(C)C (stereo not shown) [Compound I-490, 4-{1-[(2,2-dimethylpropanoyl)amino]ethyl}-N-hydroxy-3-methylbenzamide]
> 1000 nM	Cc1cc(C(=O)NC(C)c2cccc(C(=O)NO)c2)c(C)o1 (stereo not shown) [Compound I-104, N-(1-{3-[(hydroxyamino)carbonyl]phenyl}ethyl)-2,5-dimethyl-3-furamide]
> 1000 nM	Cn1c(C(=O)NC(c2ccc(C(=O)NO)cc2)C(C)(C)C)cc(Cl)c1Cl (stereo not shown) [Compound I-386, 4,5-dichloro-N-(1-{4-[(hydroxyamino)carbonyl]phenyl}-2,2-dimethylpropyl)-1-methyl-1H-pyrrole-2-carboxamide]
> 1000 nM	Cc1noc(C)c1C(=O)NC(C)c1cccc(C(=O)NO)c1 (stereo not shown) [Compound I-218, N-(1-{3-[(hydroxyamino)carbonyl]phenyl}ethyl)-3,5-dimethylisoxazole-4-carboxamide]
> 1000 nM	CC(NC(=O)Cc1ccc(F)cc1F)c1ccc(C(=O)NO)cc1 (stereo not shown) [Compound I-402, 4-(1-{[(2,4-difluorophenyl)acetyl]amino}ethyl)-N-hydroxybenzamide]
> 1000 nM	CC(NC(=O)Cc1ccccc1Cl)c1ccc(C(=O)NO)cc1 (stereo not shown) [Compound I-292, 4-(1-{[(2-chlorophenyl)acetyl]amino}ethyl)-N-hydroxybenzamide]
> 1000 nM	CC(NC(=O)CC12CC3CC(CC(C3)C1)C2)c1ccc(C(=O)NO)cc1 (stereo not shown) [Compound I-212]

same assay, conditions: purified human HDAC6, substrate Ac-Arg-Gly-Lys(Ac)-AMC, 1 hour at 30° C.; reported as bins

SMILES	IC50
CC(NC(=O)c1cc2ccccc2s1)c1cccc(C(=O)NO)c1 (stereo not shown) [Compound I-97, N-(1-{3-[(hydroxyamino)carbonyl]phenyl}ethyl)-1-benzothiophene-2-carboxamide]	100 to 500 nM
CC(C)(C)C(NC(=O)c1cc2cc(Cl)ccc2o1)c1ccc(C(=O)NO)cc1 (stereo not shown) [Compound I-270, 5-chloro-N-(1-{4-[(hydroxyamino)carbonyl]phenyl}-2,2-dimethylpropyl)-1-benzofuran-2-carboxamide]	100 to 500 nM
COc1ccc(C(=O)NC(c2ccc(C(=O)NO)cc2)C(C)(C)C)cc1 (stereo not shown) [Compound I-352, N-(1-{4-[(hydroxyamino)carbonyl]phenyl}-2,2-dimethylpropyl)-4-methoxybenzamide]	100 to 500 nM
CC(NC(=O)C1(c2ccccc2)CCCC1)c1ccc(C(=O)NO)cc1 (stereo not shown) [Compound I-298, N-hydroxy-4-(1-{[(1-phenylcyclopentyl)carbonyl]amino}ethyl)benzamide]	100 to 500 nM
CC(NS(=O)(=O)c1ccc(-c2cnco2)cc1)c1ccc(C(=O)NO)cc1 (stereo not shown) [Compound I-178, N-hydroxy-4-[1-({[4-(1,3-oxazol-5-yl)phenyl]sulfonyl}amino)ethyl]benzamide]	100 to 500 nM
CC(C)C(NC(=O)C1CCCCCC1)c1ccc(C(=O)NO)cc1 (stereo not shown) [Compound I-382, N-(1-{4-[(hydroxyamino)carbonyl]phenyl}-2-methylpropyl)cycloheptanecarboxamide]	100 to 500 nM
CC(C)(C)C(NC(=O)c1cccs1)c1ccc(C(=O)NO)cc1 (stereo not shown) [Compound I-215, N-(1-{4-[(hydroxyamino)carbonyl]phenyl}-2,2-dimethylpropyl)thiophene-2-carboxamide]	100 to 500 nM
C[C@@H](NC(=O)c1ccc(-c2ccccc2)cc1)c1cccc(C(=O)NO)c1 [Compound I-121, N-((1R)-1-{3-[(hydroxyamino)carbonyl]phenyl}ethyl)biphenyl-4-carboxamide]	100 to 500 nM
C[C@H](NC(=O)c1cc2ccccc2s1)c1ccc(C(=O)NO)cc1 [Compound I-53, N-((1S)-1-{4-[(hydroxyamino)carbonyl]phenyl}ethyl)-1-benzothiophene-2-carboxamide]	< 100 nM
CCC[C@@H](NC(=O)c1oc2ccccc2c1C)c1ccc(C(=O)NO)cc1 [Compound I-367, N-((1R)-1-{4-[(hydroxyamino)carbonyl]phenyl}butyl)-3-methyl-1-benzofuran-2-carboxamide]	< 100 nM
CC(NS(=O)(=O)c1cccc2cccnc12)c1ccc(C(=O)NO)cc1 (stereo not shown) [Compound I-363, N-hydroxy-4-{1-[(quinolin-8-ylsulfonyl)amino]ethyl}benzamide]	100 to 500 nM
CC(NC(=O)Nc1cc(C(F)(F)F)ccc1F)c1ccc(C(=O)NO)cc1 (stereo not shown) [Compound I-334, 4-{1-[({[2-fluoro-5-(trifluoromethyl)phenyl]amino}carbonyl)amino]ethyl}-N-hydroxybenzamide]	< 100 nM
CC(NC(=O)Nc1ccc(F)c(F)c1)c1ccc(C(=O)NO)cc1 (stereo not shown) [Compound I-275, 4-[1-({[(3,4-difluorophenyl)amino]carbonyl}amino)ethyl]-N-hydroxybenzamide]	< 100 nM
C[C@H](NC(=O)c1cc2ccccc2n1C)c1cccc(C(=O)NO)c1 [Compound I-294, N-((1S)-1-{3-[(hydroxyamino)carbonyl]phenyl}ethyl)-1-methyl-1H-indole-2-carboxamide]	100 to 500 nM

Second part, the compound after the results:

IC50	SMILES
< 100 nM	COc1cccc2cc(C(=O)NC(c3ccc(C(=O)NO)cc3)C(C)C)oc12 (stereo not shown) [Compound I-306, N-(1-{4-[(hydroxyamino)carbonyl]phenyl}-2-methylpropyl)-7-methoxy-1-benzofuran-2-carboxamide]
< 100 nM	CC(C)[C@@H](NC(=O)c1cc(Cl)c(Cl)n1C)c1ccc(C(=O)NO)cc1 [Compound I-96, 4,5-dichloro-N-((1R)-1-{4-[(hydroxyamino)carbonyl]phenyl}-2-methylpropyl)-1-methyl-1H-pyrrole-2-carboxamide]
< 100 nM	C[C@@H](NC(=O)Nc1cccc2ccccc12)c1ccc(C(=O)NO)cc1 [Compound I-527, N-hydroxy-4-((1R)-1-{[(1-naphthylamino)carbonyl]amino}ethyl)benzamide]
< 100 nM	CC(C)[C@@H](NC(=O)c1cc2ccccc2n1C)c1ccc(C(=O)NO)cc1 [Compound I-242, N-((1R)-1-{4-[(hydroxyamino)carbonyl]phenyl}-2-methylpropyl)-1-methyl-1H-indole-2-carboxamide]
< 100 nM	CC(NC(=O)C1(C)CC1)c1ccc(C(=O)NO)cc1 (stereo not shown) [Compound I-154, N-hydroxy-4-(1-{[(1-methylcyclopropyl)carbonyl]amino}ethyl)benzamide]
< 100 nM	CC(NC(=O)c1ccc(-n2cccn2)cc1)c1ccc(C(=O)NO)cc1 (stereo not shown) [Compound I-185, N-(1-{4-[(hydroxyamino)carbonyl]phenyl}ethyl)-4-(1H-pyrazol-1-yl)benzamide]
< 100 nM	CCC[C@@H](NC(=O)c1sc2ccccc2c1C)c1ccc(C(=O)NO)cc1 [Compound I-62, N-((1R)-1-{4-[(hydroxyamino)carbonyl]phenyl}butyl)-3-methyl-1-benzothiophene-2-carboxamide]
< 100 nM	CCC[C@@H](NC(=O)c1cc2ccccc2o1)c1ccc(C(=O)NO)cc1 [Compound I-79, N-((1R)-1-{4-[(hydroxyamino)carbonyl]phenyl}butyl)-1-benzofuran-2-carboxamide]
< 100 nM	CC(NC(=O)c1ccc(-c2cnco2)cc1)c1ccc(C(=O)NO)cc1 (stereo not shown) [Compound I-138, N-(1-{4-[(hydroxyamino)carbonyl]phenyl}ethyl)-4-(1,3-oxazol-5-yl)benzamide]
< 100 nM	CCc1ccc(NC(=O)NC(C)c2ccc(C(=O)NO)cc2)cc1 (stereo not shown) [Compound I-381, 4-[1-({[(4-ethylphenyl)amino]carbonyl}amino)ethyl]-N-hydroxybenzamide]
< 100 nM	CC(NC(=O)c1ccccc1)c1ccc(C(=O)NO)cc1 (stereo not shown) [Compound I-385, 4-[1-(benzoylamino)ethyl]-N-hydroxybenzamide]

— patent US9382197B2, “Substituted hydroxamic acids and uses thereof” (Millennium Pharmaceuticals, Inc., priority 2010, dated 2016)
